The values that follow come from patent US5436254A, “Carbostyril derivatives” (Otsuka Pharmaceutical Company, Ltd., priority 1989, dated 1995).

Like-named read-outs stand apart in the source and are kept apart here.

For the experiment, the target named is V1 receptor (Rattus norvegicus, UniProt P30560). The experiment in a line: biochemical. The class given is binding.
[1] abbreviates: [H]3-Arg-vasopressin 2×10^-10 M, rat liver plasma membrane, 37° C., 10 minutes, pH 8.0.

Sequence of V1 receptor (P30560 whole entry): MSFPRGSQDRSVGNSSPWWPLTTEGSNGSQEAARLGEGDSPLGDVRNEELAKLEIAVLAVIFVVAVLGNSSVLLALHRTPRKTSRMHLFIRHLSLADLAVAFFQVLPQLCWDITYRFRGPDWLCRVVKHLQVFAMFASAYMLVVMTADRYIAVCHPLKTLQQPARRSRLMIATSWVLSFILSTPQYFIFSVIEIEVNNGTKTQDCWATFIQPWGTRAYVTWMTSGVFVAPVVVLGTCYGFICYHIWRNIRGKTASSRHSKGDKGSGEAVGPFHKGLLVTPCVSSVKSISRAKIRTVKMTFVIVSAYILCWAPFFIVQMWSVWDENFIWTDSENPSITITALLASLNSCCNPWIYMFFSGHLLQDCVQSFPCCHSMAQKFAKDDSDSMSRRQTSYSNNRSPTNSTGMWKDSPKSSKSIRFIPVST
Protocol: Experiment 1: V1 receptor binding assay
Using rat liver plasma membrane preparations prepared according to Ichihara's method [cf: Akira Ichihara, J. Bio. Chem., 258 9283 (1983)], the plasma membrane (50000 dpm, 2×10^-10 M) of [H]^3 -Arg-vasopressin and a test compound (100 ng, 10^-7 -10^-4 M) are incubated at 37° C. for 10 minutes in 100 mM Tris-HCl buffer pH: 8.0 (250 μl) containing 5 mM MgCl2, 1 mM EDTA and 0.1% BSA. After incubation, the mixture is filtered three times using the glass filter (GF/F) so as to separate the membrane preparation combining with vasopressin and then washed with the buffer (5 ml). This glass filter is taken out and mixed with liquid scintillation cocktail. The amount of [H]^3 -vasopressin combining with the membrane is measured by liquid scintillation counter and the rate of the inhibitory effect of the test compound is estimated according to the following equation. [formula] C^1 : The amount of [H]^3 -vasopressin combining with the membrane in the presence of the test compound (known amount).
C^0 : The amount of [H]^3 -vasopressin combining with the membrane in the absence of the test compound.
B^1 : The amount of [H]^3 -vasopressin combining with the membrane in the presence of the excess amount of vasopressin (10^-6 M).

For the molecule `CC(=O)N1CCC(C(=O)NCCCCOc2ccc(C(=O)N3CCC(N4C(=O)CCc5ccccc54)CC3)cc2)CC1` [Example 232, 1-{1-(4-[4-(1-Acetyl-4-piperidinylcarbonylamino)butoxy]benzoyl)-4-piperidinyl)-3,4-dihydrocarbostyril], the 50% inhibitory concentration (IC50) (in general, the concentration needed to halve the response being measured) worked out at 120 nM. As for `O=C(c1ccc(OCCCCCN2CCN(c3ncccn3)CC2)cc1)N1CCC(N2C(=O)CCc3ccccc32)CC1` [Example 233, 1-{1-(4-[5-(4-[2-Pyrimidyl]-1-piperazinyl)pentyloxy]benzoyl)-4-piperidinyl}-3,4-dihydrocarbostyril], the IC50 is 210 nM. The molecule `O=C(c1ccc(OCCCCCN2CCN(c3ccccn3)CC2)cc1)N1CCC(N2C(=O)CCc3ccccc32)CC1` [Example 234, 1-{1-(4-[5-(4-[2-Pyridyl]-1-piperazinyl)pentyloxy]benzoyl)-4-piperidinyl}-3,4-dihydrocarbostyril] had an IC50 of 180 nM. For the molecule `CC[N+](CC)(CC)CCCCCOc1ccc(C(=O)N2CCC(N3C(=O)CCc4ccccc43)CC2)cc1` [Example 235, 1-{1-[4-(5-Triethylammouniumpentyloxy)benzoyl]-4-piperidinyl)-3,4-dihydrocarbostyril bromide], the IC50 was 66 nM.

`O=C(c1ccc(OCCCCCn2ccnc2)cc1)N1CCC(N2C(=O)CCc3ccccc32)CC1` [Example 236] gave an IC50 under setting [1] of 260 nM. With `O=C(c1ccc(OCCCCCn2cncn2)cc1)N1CCC(N2C(=O)CCc3ccccc32)CC1` [Example 237], under setting [1], half-maximal inhibition (IC50) required 75 nM. Regarding `O=C(c1ccc(OCCCCCN2CCC[C@H]2CO)cc1)N1CCC(N2C(=O)CCc3ccccc32)CC1` [Example 238, 1-(1-(4-[5-(2-(S)-Hydroxymethyl-1-pyrrolidinyl)pentyloxy]benzoyl)-4-piperidinyl}-3,4-dihydrocarbostyril], the IC50 was found to be 33 nM. Still for that read-out and setting: under `COC(=O)[C@@H]1CCCN1CCCCCOc1ccc(C(=O)N2CCC(N3C(=O)CCc4ccccc43)CC2)cc1` [Example 239, 1-{1-(4-[5-(2-(S)-Methoxycarbonyl-1-pyrrolidinyl)pentyloxy]benzoyl)-4-piperidinyl}-3,4-dihydrocarbostyril] stands 150 nM. For the molecule `O=C(c1ccc(OCCCCCN2CCCC(O)C2)cc1)N1CCC(N2C(=O)CCc3ccccc32)CC1` (stereo not shown) [Example 240, 1-{1-(4-[5-(3-Hydroxy-1-piperidinyl)pentyloxy]benzoyl)-4-piperidinyl}-3,4-dihydrocarbostyril], the half-maximal inhibitory concentration (IC50) is 48 nM. For `O=C(c1ccc(OCCCCCN2CCCCC2CO)cc1)N1CCC(N2C(=O)CCc3ccccc32)CC1` (stereo not shown) [Example 241, 1-{1-(4-[5-(2-Hydroxymethyl-1-piperidinyl)pentyloxy]benzoyl)-4-piperidinyl}-3,4-dihydrocarbostyril], the half-maximal inhibitory concentration (IC50) came out at 21 nM. Still for that read-out and setting: the same measure for `CC1CCN(CCCCCOc2ccc(C(=O)N3CCC(N4C(=O)CCc5ccccc54)CC3)cc2)CC1` [Example 242, 1-{1-(4-[5-(4-Methyl-1-piperidinyl)pentyloxy]benzoyl)-4-piperidinyl}-3,4-dihydrocarbostyril]: 59 nM; for `O=C(c1ccc(OCCCCCCN2CCCCC2)cc1)N1CCC(N2C(=O)CCc3ccccc32)CC1` [Example 243, 1-{1-(4-[6-(1-Piperidinyl)hexyloxy]benzoyl)-4-piperidinyl}-3,4-dihydrocarbostyril]: 39 nM.

The molecule `CN(CCO)CCCCCOc1ccc(C(=O)N2CCC(N3C(=O)CCc4ccccc43)CC2)cc1` [Example 244, 1-{1-(4-[5-(N-(2-Hydroxyethyl)-N-methylamino)pentyloxy]benzoyl)-4-piperidinyl}-3,4-dihydrocarbostyril] displayed an IC50 of 34 nM. For `C=CCN(C)CCCCCOc1ccc(C(=O)N2CCC(N3C(=O)CCc4ccccc43)CC2)cc1` [Example 245, 1-{1-(4-[5-(N-Allyl-N-methylamino)pentyloxy]benzoyl)-4-piperidinyl}-3,4-dihydrocarbostyril], the midpoint of inhibition, the IC50, lay at 54 nM. Still for that read-out and setting: under `C=CC[N+](C)([O-])CCCCCOc1ccc(C(=O)N2CCC(N3C(=O)CCc4ccccc43)CC2)cc1` (stereo not shown) [Example 246, N-{5-[4-(4-(3,4-Dihydrocarbostyril-1-yl)-1-piperidinylcarbonyl)phenoxy]pentyl}, N-methyl, N-allylamine oxide] stands 290 nM. The molecule `CN(CCC#N)CCCCCOc1ccc(C(=O)N2CCC(N3C(=O)CCc4ccccc43)CC2)cc1` [Example 247, 1-{1-(4-[5-(N-(2-Cyanoethyl)-N-methylamino)pentyloxy]benzoyl)-4-piperidinyl}-3,4-dihydrocarbostyril] showed a half-maximal inhibitory concentration (IC50) of 170 nM. For `CN(C)CCN(CCCCCOc1ccc(C(=O)N2CCC(N3C(=O)CCc4ccccc43)CC2)cc1)Cc1ccccc1` [Example 248, 1-{1-(4-[5-(N-(2-Dimethylaminoethyl)-N-benzylamino)pentyloxy]benzoyl)-4-piperidinyl}-3,4-dihydrocarbostyril], the IC50 stood at 34 nM. Take `CC(=O)OCCN(CCCCCOc1ccc(C(=O)N2CCC(N3C(=O)CCc4ccccc43)CC2)cc1)CCOC(C)=O` [Example 249, 1-{1-(4-[5-(N,N-Di(2-acetoxyethyl)amino)pentyloxy]benzoyl)-4-piperidinyl}-3,4-dihydrocarbostyril]: inhibition was half-maximal at 45 nM (IC50).

Regarding `O=C(CCCNC(=O)OCc1ccccc1)NCCCCCOc1ccc(C(=O)N2CCC(N3C(=O)CCc4ccccc43)CC2)cc1` [Example 250, 1-{1-(4-[5-(4-Benzyloxycarbonylaminobutyrylamino)pentyloxy]benzoyl)-4-piperidinyl}-3,4-dihydrocarbostyril], it took 320 nM to reach half-maximal inhibition (IC50). As for `C=CCNCC(=O)NCCCCCOc1ccc(C(=O)N2CCC(N3C(=O)CCc4ccccc43)CC2)cc1` [Example 251], the IC50 worked out at 98 nM. In the case of `O=C(CN1CCCC1)NCCCCCOc1ccc(C(=O)N2CCC(N3C(=O)CCc4ccccc43)CC2)cc1` [Example 252, 1-{1-(4-[5-(2-(1-Pyrrolidinyl)acetylamino)pentyloxy]benzoyl)-4-piperidinyl}-3,4-dihydrocarbostyril], the concentration for half-maximal inhibition (IC50) came out at 86 nM. As to `O=C(CN1CCOCC1)NCCCCCOc1ccc(C(=O)N2CCC(N3C(=O)CCc4ccccc43)CC2)cc1` [Example 253, 1-{1-(4-[5-(2-Morpholinoacetylamino)pentyloxy]benzoyl)-4-piperidinyl}-3,4-dihydrocarbostyril], half-maximal inhibition (IC50) required 180 nM. For the molecule `CN1CCN(CC(=O)NCCCCCOc2ccc(C(=O)N3CCC(N4C(=O)CCc5ccccc54)CC3)cc2)CC1` [Example 254, 1-{1-(4-[5-(2-(4-Methyl-1-piperazinyl)acetylamino)pentyloxy]benzoyl)-4-piperidinyl}-3,4-dihydrocarbostyril], the midpoint of inhibition, the IC50, lay at 60 nM.

The molecule `O=C(CN1CCN(c2ccccc2)CC1)NCCCCCOc1ccc(C(=O)N2CCC(N3C(=O)CCc4ccccc43)CC2)cc1` [Example 255, 1-{1-(4-[5-(2-(4-Phenyl-1-piperazinyl)acetylamino)pentyloxy]benzoyl)-4-piperidinyl}-3,4-dihydrocarbostyril] returned an IC50 of 380 nM. As to `O=C(CNCc1ccccc1)NCCCCCOc1ccc(C(=O)N2CCC(N3C(=O)CCc4ccccc43)CC2)cc1` [Example 256, 1-{1-(4-[5-(2-Benzylaminoacetylamino)pentyloxy]benzoyl)-4-piperidinyl}-3,4-dihydrocarbostyril], the IC50 came out at 190 nM.
